Reference: BindingDB's records for doi:10.1021/jm500763m (Beijing Institute of Pharmacology & Toxicology, 2014)
Square brackets hold non-standard residues; d marks the D form. Peptide text beside a SMILES is read from it. * marks the point of attachment. X1 = C=CCOC(=O)[C@]12CC[C@@H](C(=C)C)[C@@H]1[C@H]1CC[C@@H]3[C@@]4(C)CC[C@H](OC(=O)CCc5cn(CC(=O)*)nn5)C(C)(C)[C@@H]4CC[C@@]3(C)[C@]1(C)CC2; X5 = C=C(C)[C@@H]1CC[C@]2(C(=O)OCc3cn(CC(=O)*)nn3)CC[C@]3(C)[C@H](CC[C@@H]4[C@@]5(C)CC[C@H](OC(C)=O)C(C)(C)[C@@H]5CC[C@]43C)[C@@H]12; X8 = C[C@H]1[C@H](C)CC[C@]2(C(=O)O)CC[C@]3(C)C(=CC[C@@H]4[C@@]5(C)CC[C@H](OC(=O)CCc6cn(CC(=O)*)nn6)C(C)(C)[C@@H]5CC[C@]43C)[C@H]12; X4 = C=C(C)[C@@H]1CC[C@]2(C(=O)OCc3cn(CC(=O)*)nn3)CC[C@]3(C)[C@H](CC[C@@H]4[C@@]5(C)CC[C@H](O)C(C)(C)[C@@H]5CC[C@]43C)[C@@H]12; X7 = C[C@H]1[C@H](C)CC[C@]2(C(=O)OCc3cn(CC(=O)*)nn3)CC[C@]3(C)C(=CC[C@@H]4[C@@]5(C)CC[C@H](O)C(C)(C)[C@@H]5CC[C@]43C)[C@H]12; X6 = CC1(C)CC[C@]2(C(=O)O)CC[C@]3(C)C(=CC[C@@H]4[C@@]5(C)CC[C@H](OC(=O)CCc6cn(CC(=O)*)nn6)C(C)(C)[C@@H]5CC[C@]43C)[C@@H]2C1; X10 = CC1(C)CC[C@]2(C(=O)OCc3cn(CC(=O)*)nn3)CC[C@]3(C)C(=CC[C@@H]4[C@@]5(C)CC[C@H](O)C(C)(C)[C@@H]5CC[C@]43C)[C@@H]2C1; X11 = CCCc1cn(CC(=O)*)nn1; βAla = NCCC(=O)O

What was measured:
[1] = Inhibition of HIV1 gp41-induced cell-cell fusion between viral envelope expressing human HL2/3 cells to CD4/CCR5 receptor expressing TZM-bl cells compound preincubated for 1 hr measured after 48 hrs by prime/wash assay
[2] = Inhibition of HIV1 gp41-induced cell-cell fusion between viral envelope expressing human HL2/3 cells to CD4/CCR5 receptor expressing TZM-bl cells after 6 to 8 hrs by luciferase assay
[3] = Inhibition of HIV1 gp41-induced cell-cell fusion between viral envelope expressing human HL2/3 cells to CD4/CCR5 receptor expressing TZM-bl cells compound preincubated for 1 hr followed by wash out measured after 48 hrs by prime/wash assay

| Molecule | EC50 [1] [nM] | EC50 [2] [nM] | EC50 [3] [nM] |
| --- | --- | --- | --- |
| C=CCOC(=O)[C@]12CC[C@@H](C(=C)C)[C@@H]1[C@H]1CC[C@@H]3[C@@]4(C)CC[C@H](OC(=O)CCc5cn(CC(=O)NCCCC[C@H](NC(=O)CCNC(=O)[C@H](CC(C)C)NC(=O)[C@H](CC(C)C)NC(=O)[C@H](CCC(=O)O)NC(=O)[C@H](CCC(N)=O)NC(=O)[C@H](CCC(=O)O)NC(=O)[C@H](CC(N)=O)NC(=O)[C@H](CCCCN)NC(=O)[C@H](CCC(=O)O)NC(=O)[C@H](CCC(N)=O)NC(=O)[C@H](CCC(N)=O)NC(=O)[C@H](CC(N)=O)NC(=O)[C@H](CCC(N)=O)NC(=O)[C@H](CO)NC(=O)[C@H](CCC(=O)O)NC(=O)[C@H](CCC(=O)O)NC(=O)[C@@H](NC(=O)[C@H](CC(C)C)NC(=O)[C@H](CO)NC(=O)[C@H](Cc6cnc[nH]6)NC(=O)[C@@H](NC(=O)[C@H](CC(C)C)NC(=O)[C@H](CO)NC(=O)[C@@H](NC(=O)[C@H](Cc6ccc(O)cc6)NC(=O)[C@H](CC(N)=O)NC(=O)[C@H](CC(N)=O)NC(C)=O)[C@@H](C)O)[C@@H](C)CC)[C@@H](C)CC)C(N)=O)nn5)C(C)(C)[C@@H]4CC[C@@]3(C)[C@]1(C)CC2 (Ac-NNYTSLIHSLIEESQNQQEKNEQELL[βAla]K(X1)-NH2) | 13 | 3.9 |  |
| C=C(C)[C@@H]1CC[C@]2(C(=O)OCc3cn(CC(=O)NCCC(=O)N[C@@H](CC(N)=O)C(=O)N[C@@H](CC(N)=O)C(=O)N[C@@H](Cc4ccc(O)cc4)C(=O)N[C@H](C(=O)N[C@@H](CO)C(=O)N[C@@H](CC(C)C)C(=O)N[C@H](C(=O)N[C@@H](Cc4cnc[nH]4)C(=O)N[C@@H](CO)C(=O)N[C@@H](CC(C)C)C(=O)N[C@H](C(=O)N[C@@H](CCC(=O)O)C(=O)N[C@@H](CCC(=O)O)C(=O)N[C@@H](CO)C(=O)N[C@@H](CCC(N)=O)C(=O)N[C@@H](CC(N)=O)C(=O)N[C@@H](CCC(N)=O)C(=O)N[C@@H](CCC(N)=O)C(=O)N[C@@H](CCC(=O)O)C(=O)N[C@@H](CCCCN)C(=O)N[C@@H](CC(N)=O)C(=O)N[C@@H](CCC(=O)O)C(=O)N[C@@H](CCC(N)=O)C(=O)N[C@@H](CCC(=O)O)C(=O)N[C@@H](CC(C)C)C(=O)N[C@@H](CC(C)C)C(N)=O)[C@@H](C)CC)[C@@H](C)CC)[C@@H](C)O)nn3)CC[C@]3(C)[C@H](CC[C@@H]4[C@@]5(C)CC[C@H](O)C(C)(C)[C@@H]5CC[C@]43C)[C@@H]12 ({X4-βAla}-NNYTSLIHSLIEESQNQQEKNEQELL-NH2) |  | 89 |  |
| C=C(C)[C@@H]1CC[C@]2(C(=O)OCc3cn(CC(=O)NCCC(=O)N[C@@H](CC(N)=O)C(=O)N[C@@H](CC(N)=O)C(=O)N[C@@H](Cc4ccc(O)cc4)C(=O)N[C@H](C(=O)N[C@@H](CO)C(=O)N[C@@H](CC(C)C)C(=O)N[C@H](C(=O)N[C@@H](Cc4cnc[nH]4)C(=O)N[C@@H](CO)C(=O)N[C@@H](CC(C)C)C(=O)N[C@H](C(=O)N[C@@H](CCC(=O)O)C(=O)N[C@@H](CCC(=O)O)C(=O)N[C@@H](CO)C(=O)N[C@@H](CCC(N)=O)C(=O)N[C@@H](CC(N)=O)C(=O)N[C@@H](CCC(N)=O)C(=O)N[C@@H](CCC(N)=O)C(=O)N[C@@H](CCC(=O)O)C(=O)N[C@@H](CCCCN)C(=O)N[C@@H](CC(N)=O)C(=O)N[C@@H](CCC(=O)O)C(=O)N[C@@H](CCC(N)=O)C(=O)N[C@@H](CCC(=O)O)C(=O)N[C@@H](CC(C)C)C(=O)N[C@@H](CC(C)C)C(N)=O)[C@@H](C)CC)[C@@H](C)CC)[C@@H](C)O)nn3)CC[C@]3(C)[C@H](CC[C@@H]4[C@@]5(C)CC[C@H](OC(C)=O)C(C)(C)[C@@H]5CC[C@]43C)[C@@H]12 ({X5-βAla}-NNYTSLIHSLIEESQNQQEKNEQELL-NH2) |  | 327 |  |
| CC[C@H](C)[C@H](NC(=O)[C@H](CC(C)C)NC(=O)[C@H](CO)NC(=O)[C@H](Cc1cnc[nH]1)NC(=O)[C@@H](NC(=O)[C@H](CC(C)C)NC(=O)[C@H](CO)NC(=O)[C@@H](NC(=O)[C@H](Cc1ccc(O)cc1)NC(=O)[C@H](CC(N)=O)NC(=O)[C@H](CC(N)=O)NC(=O)CCNC(=O)Cn1cc(CCC(=O)O[C@H]2CC[C@]3(C)[C@H]4CC=C5[C@@H]6CC(C)(C)CC[C@]6(C(=O)O)CC[C@@]5(C)[C@]4(C)CC[C@H]3C2(C)C)nn1)[C@@H](C)O)[C@@H](C)CC)C(=O)N[C@@H](CCC(=O)O)C(=O)N[C@@H](CCC(=O)O)C(=O)N[C@@H](CO)C(=O)N[C@@H](CCC(N)=O)C(=O)N[C@@H](CC(N)=O)C(=O)N[C@@H](CCC(N)=O)C(=O)N[C@@H](CCC(N)=O)C(=O)N[C@@H](CCC(=O)O)C(=O)N[C@@H](CCCCN)C(=O)N[C@@H](CC(N)=O)C(=O)N[C@@H](CCC(=O)O)C(=O)N[C@@H](CCC(N)=O)C(=O)N[C@@H](CCC(=O)O)C(=O)N[C@@H](CC(C)C)C(=O)N[C@@H](CC(C)C)C(N)=O ({X6-βAla}-NNYTSLIHSLIEESQNQQEKNEQELL-NH2) |  | 29 |  |
| CC[C@H](C)[C@H](NC(=O)[C@H](CC(C)C)NC(=O)[C@H](CO)NC(=O)[C@H](Cc1cnc[nH]1)NC(=O)[C@@H](NC(=O)[C@H](CC(C)C)NC(=O)[C@H](CO)NC(=O)[C@@H](NC(=O)[C@H](Cc1ccc(O)cc1)NC(=O)[C@H](CC(N)=O)NC(=O)[C@H](CC(N)=O)NC(=O)CCNC(=O)Cn1cc(COC(=O)[C@]23CC[C@@H](C)[C@H](C)[C@H]2C2=CC[C@@H]4[C@@]5(C)CC[C@H](O)C(C)(C)[C@@H]5CC[C@@]4(C)[C@]2(C)CC3)nn1)[C@@H](C)O)[C@@H](C)CC)C(=O)N[C@@H](CCC(=O)O)C(=O)N[C@@H](CCC(=O)O)C(=O)N[C@@H](CO)C(=O)N[C@@H](CCC(N)=O)C(=O)N[C@@H](CC(N)=O)C(=O)N[C@@H](CCC(N)=O)C(=O)N[C@@H](CCC(N)=O)C(=O)N[C@@H](CCC(=O)O)C(=O)N[C@@H](CCCCN)C(=O)N[C@@H](CC(N)=O)C(=O)N[C@@H](CCC(=O)O)C(=O)N[C@@H](CCC(N)=O)C(=O)N[C@@H](CCC(=O)O)C(=O)N[C@@H](CC(C)C)C(=O)N[C@@H](CC(C)C)C(N)=O ({X7-βAla}-NNYTSLIHSLIEESQNQQEKNEQELL-NH2) |  | 145 |  |
| CC[C@H](C)[C@H](NC(=O)[C@H](CC(C)C)NC(=O)[C@H](CO)NC(=O)[C@H](Cc1cnc[nH]1)NC(=O)[C@@H](NC(=O)[C@H](CC(C)C)NC(=O)[C@H](CO)NC(=O)[C@@H](NC(=O)[C@H](Cc1ccc(O)cc1)NC(=O)[C@H](CC(N)=O)NC(=O)[C@H](CC(N)=O)NC(=O)CCNC(=O)Cn1cc(CCC(=O)O[C@H]2CC[C@]3(C)[C@H]4CC=C5[C@@H]6[C@@H](C)[C@H](C)CC[C@]6(C(=O)O)CC[C@@]5(C)[C@]4(C)CC[C@H]3C2(C)C)nn1)[C@@H](C)O)[C@@H](C)CC)C(=O)N[C@@H](CCC(=O)O)C(=O)N[C@@H](CCC(=O)O)C(=O)N[C@@H](CO)C(=O)N[C@@H](CCC(N)=O)C(=O)N[C@@H](CC(N)=O)C(=O)N[C@@H](CCC(N)=O)C(=O)N[C@@H](CCC(N)=O)C(=O)N[C@@H](CCC(=O)O)C(=O)N[C@@H](CCCCN)C(=O)N[C@@H](CC(N)=O)C(=O)N[C@@H](CCC(=O)O)C(=O)N[C@@H](CCC(N)=O)C(=O)N[C@@H](CCC(=O)O)C(=O)N[C@@H](CC(C)C)C(=O)N[C@@H](CC(C)C)C(N)=O ({X8-βAla}-NNYTSLIHSLIEESQNQQEKNEQELL-NH2) |  | 52 |  |
| CC[C@H](C)[C@H](NC(=O)[C@H](CC(C)C)NC(=O)[C@H](CO)NC(=O)[C@H](Cc1cnc[nH]1)NC(=O)[C@@H](NC(=O)[C@H](CC(C)C)NC(=O)[C@H](CO)NC(=O)[C@@H](NC(=O)[C@H](Cc1ccc(O)cc1)NC(=O)[C@H](CC(N)=O)NC(=O)[C@H](CC(N)=O)NC(=O)CCNC(=O)Cn1cc(COC(=O)[C@]23CCC(C)(C)C[C@H]2C2=CC[C@@H]4[C@@]5(C)CC[C@H](O)C(C)(C)[C@@H]5CC[C@@]4(C)[C@]2(C)CC3)nn1)[C@@H](C)O)[C@@H](C)CC)C(=O)N[C@@H](CCC(=O)O)C(=O)N[C@@H](CCC(=O)O)C(=O)N[C@@H](CO)C(=O)N[C@@H](CCC(N)=O)C(=O)N[C@@H](CC(N)=O)C(=O)N[C@@H](CCC(N)=O)C(=O)N[C@@H](CCC(N)=O)C(=O)N[C@@H](CCC(=O)O)C(=O)N[C@@H](CCCCN)C(=O)N[C@@H](CC(N)=O)C(=O)N[C@@H](CCC(=O)O)C(=O)N[C@@H](CCC(N)=O)C(=O)N[C@@H](CCC(=O)O)C(=O)N[C@@H](CC(C)C)C(=O)N[C@@H](CC(C)C)C(N)=O ({X10-βAla}-NNYTSLIHSLIEESQNQQEKNEQELL-NH2) |  | 176 |  |
| CCCc1cn(CC(=O)NCCC(=O)N[C@@H](CC(N)=O)C(=O)N[C@@H](CC(N)=O)C(=O)N[C@@H](Cc2ccc(O)cc2)C(=O)N[C@H](C(=O)N[C@@H](CO)C(=O)N[C@@H](CC(C)C)C(=O)N[C@H](C(=O)N[C@@H](Cc2cnc[nH]2)C(=O)N[C@@H](CO)C(=O)N[C@@H](CC(C)C)C(=O)N[C@H](C(=O)N[C@@H](CCC(=O)O)C(=O)N[C@@H](CCC(=O)O)C(=O)N[C@@H](CO)C(=O)N[C@@H](CCC(N)=O)C(=O)N[C@@H](CC(N)=O)C(=O)N[C@@H](CCC(N)=O)C(=O)N[C@@H](CCC(N)=O)C(=O)N[C@@H](CCC(=O)O)C(=O)N[C@@H](CCCCN)C(=O)N[C@@H](CC(N)=O)C(=O)N[C@@H](CCC(=O)O)C(=O)N[C@@H](CCC(N)=O)C(=O)N[C@@H](CCC(=O)O)C(=O)N[C@@H](CC(C)C)C(=O)N[C@@H](CC(C)C)C(N)=O)[C@@H](C)CC)[C@@H](C)CC)[C@@H](C)O)nn1 ({X11-βAla}-NNYTSLIHSLIEESQNQQEKNEQELL-NH2) |  | 3580 |  |
| C[C@H]1[C@H](C)CC[C@]2(C(=O)O)CC[C@]3(C)C(=CC[C@@H]4[C@@]5(C)CC[C@H](O)C(C)(C)[C@@H]5CC[C@]43C)[C@H]12 [3beta-hydroxyurs-12-en-28-oic acid] |  | > 100000 |  |
| CC1(C)CC[C@]2(C(=O)O)CC[C@]3(C)C(=CC[C@@H]4[C@@]5(C)CC[C@H](O)C(C)(C)[C@@H]5CC[C@]43C)[C@@H]2C1 [Oleanolic acid (OA)(Compound 1)] |  | > 100000 |  |
| enfuvirtide | 14 | 10 | 542 |
